Structures can show the parent of a compound that is named as a salt.
Tested on: HCT116
Conditions: 72 h
How it was run: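 HCT116 cells were seeded at 250 per well in 1536-well plates and left 5 h to attach. CellTiter-Glo luminescence was scaled to vehicle (0%) and positive control (-100%), then pattern-corrected. IC50 and maximal efficacy came from four-parameter Hill fits.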

| Structure (SMILES) | IC50 cell viability (ICRF193 0 nM) | IC50 cell viability (ICRF193 200 nM) |
| --- | --- | --- |
| C[C@]12CC[C@H](OS(=O)(=O)O)CC1=CC[C@@H]1[C@@H]2CC[C@]2(C)C(=O)CC[C@@H]12 [Dehydroepiandrosterone Sulfate (sodium salt)] | > 45.8 µM | > 45.8 µM |
| CO[C@@H]1[C@@H](O[C@@H]2O[C@H](C)[C@@H](O[C@H]3C[C@@](C)(O)[C@@H](O)[C@H](C)O3)[C@H](N(C)C)[C@H]2O)[C@@H](CC=O)C[C@@H](C)[C@@H](O[C@H]2CC[C@H](N(C)C)[C@@H](C)O2)/C=C/C=C/C[C@@H](C)OC(=O)C[C@H]1OC(C)=O [Spiramycin II] | > 45.8 µM | > 45.8 µM |
| Nc1cccc2c1CN(C1CCC(=O)NC1=O)C2=O (stereo not given) [Lenalidomide] | > 45.8 µM | > 45.8 µM |
| CCC1(c2cccc(O)c2)CCCCN(C)C1 (stereo not given) [Meptazinol hydrochloride] | > 45.8 µM | > 45.8 µM |
| OCCOCCN1CCN(C(c2ccccc2)c2ccc(Cl)cc2)CC1 (stereo not given) [Hydroxyzine] | > 45.8 µM | > 45.8 µM |
| O=C1c2cccc3c2[C@H](CCC3)CN1[C@@H]1CN2CCC1CC2 [Palonosetron hydrochloride] | > 45.8 µM | > 45.8 µM |
| CC(=O)[C@H]1CC[C@H]2[C@@H]3C[C@H](C)C4=CC(=O)CC[C@]4(C)[C@H]3[C@@H](O)C[C@]12C [Medrysone] | > 45.8 µM | > 45.8 µM |
| Nc1[nH]cnc2ncnc1-2 [Adenine] | > 45.8 µM | > 45.8 µM |
| Nc1ccn([C@H]2CC[C@@H](CO)O2)c(=O)n1 [2',3'-Dideoxycytidine] | > 45.8 µM | > 45.8 µM |
| N#CSCC(=O)O [Thiocyanoacetic acid sodium salt] | > 45.8 µM | > 45.8 µM |
| O=C(O)C(=O)Nc1cccc(-c2nnn[nH]2)c1 [Acitazanolast] | > 45.8 µM | > 45.8 µM |
| CCN(CC)CC(=O)OCC(=O)[C@@]1(O)CC[C@H]2[C@@H]3CCC4=CC(=O)CC[C@]4(C)[C@H]3[C@@H](O)C[C@@]21C [Hydrocortamate] | > 45.8 µM | > 45.8 µM |
| Nc1c(NC/C=C\COc2cc(CN3CCCCC3)ccn2)c(=O)c1=O [Pibutidine] | > 45.8 µM | > 45.8 µM |
| C/C(=N\O)C(C)NCC(C)(C)CNC(C)/C(C)=N/O (stereo not given) [Exametazime] | > 45.8 µM | > 45.8 µM |
| CC(=O)OC[C@H]1O[C@@H](n2ccc(=O)[nH]c2=O)[C@H](OC(C)=O)[C@@H]1OC(C)=O [Uridine triacetate] | > 45.8 µM | > 45.8 µM |
| O=C(O)[C@H](O)c1ccccc1 [D-(-)-Mandelic acid] | > 45.8 µM | > 45.8 µM |
| CC([C@H](O)c1ccccc1)N(C)C (stereo partly drawn) [N-METHYL (-)EPHEDRINE [1R,2S]] | > 45.8 µM | > 45.8 µM |
| CN(Cc1cc(Br)cc(Br)c1N)C1CCCCC1 [Bromhexine hydrochloride] | > 45.8 µM | > 45.8 µM |
| CCC(=O)O[C@H]1CC[C@H]2[C@@H]3CCC4=CC(=O)CC[C@]4(C)[C@H]3CC[C@]12C [Testosterone propionate] | > 45.8 µM | > 45.8 µM |
| C[N+]1(C)CCC(=C(c2ccccc2)c2ccccc2)CC1 [Diphemanil methylsulfate] | > 45.8 µM | > 45.8 µM |
| CCCOC(=O)c1ccccc1 [Propyl benzoate] | > 45.8 µM | > 45.8 µM |
| CCC(=O)O[C@]1(C(=O)CCl)[C@@H](C)C[C@H]2[C@@H]3CCC4=CC(=O)C=C[C@]4(C)[C@@]3(F)[C@@H](O)C[C@@]21C [Clobetasol propionate] | > 45.8 µM | > 45.8 µM |
| CC1(C)S[C@@H]2[C@H](NC(=O)C(c3ccccc3)S(=O)(=O)O)C(=O)N2[C@H]1C(=O)O (stereo not given in full) [Sulbenicillin disodium] | > 45.8 µM | > 45.8 µM |
| Fc1cccc(Br)c1NC1=NCCN1 [ROMIFIDINE] | > 45.8 µM | > 45.8 µM |
| CC1=C2[C@H]3OC(=O)[C@@H](C)[C@@H]3CC[C@@]2(C)C=CC1=O [alpha-Santonin] | > 45.8 µM | > 45.8 µM |
| CC(=O)O[C@]1(C(C)=O)CC[C@H]2[C@@H]3C=C(Cl)C4=CC(=O)CC[C@]4(C)[C@H]3CC[C@@]21C [Chlormadinone acetate] | > 45.8 µM | > 45.8 µM |
| CN1C2CCCC1CC(NC(=O)c1nn(C)c3ccccc13)C2 (stereo not given) [Granisetron (AB-1001)] | > 45.8 µM | > 45.8 µM |
| CCCC(=O)O[C@]1(C(=O)CO)CC[C@H]2[C@@H]3CCC4=CC(=O)CC[C@]4(C)[C@H]3[C@@H](O)C[C@@]21C [Hydrocortisone 17-butyrate] | > 45.8 µM | > 45.8 µM |

Next, values leading:

| IC50 cell viability (ICRF193 0 nM) | IC50 cell viability (ICRF193 200 nM) | Structure (SMILES) |
| --- | --- | --- |
| > 45.8 µM | > 45.8 µM | Cc1[nH]cnc1CN1CCc2c(c3ccccc3n2C)C1=O [Alosetron hydrochloride] |
| > 45.8 µM | > 45.8 µM | Cc1ccc(C(C)OC(=O)C2(C)CCC(C(=O)O)C2(C)C)cc1 (stereo not given) [Tocanfil] |
| > 45.8 µM | > 45.8 µM | OC[C@H]1O[C@@H](Oc2ccc(O)cc2)[C@H](O)[C@@H](O)[C@@H]1O [Arbutin] |
| > 45.8 µM | > 45.8 µM | COc1ccc2c(c1)C(=O)N(CCc1ccc(S(=O)(=O)NC(=O)NC3CCCCC3)cc1)C(=O)C2(C)C [Gliquidone] |
| > 45.8 µM | > 45.8 µM | O=C(NC[C@H]1CN(c2ccc(N3CCOCC3=O)cc2)C(=O)O1)c1ccc(Cl)s1 [Rivaroxaban] |
| > 45.8 µM | > 45.8 µM | CNS(=O)(=O)Cc1ccc2[nH]cc(CCN(C)C)c2c1 [Sumatriptan] |
| > 45.8 µM | > 45.8 µM | COC(=O)C1=C(C#N)NC(C)=C(C(=O)OC(C)C)C1c1cccc([N+](=O)[O-])c1 (stereo not given) [Nilvadipine] |
| > 45.8 µM | > 45.8 µM | Oc1ccc(C(O)CNCCCCCCNCC(O)c2ccc(O)c(O)c2)cc1O (stereo not given) [Hexoprenaline sulfate] |
| > 45.8 µM | > 45.8 µM | O=C(CCCN1CC=C(n2c(=O)[nH]c3ccccc32)CC1)c1ccc(F)cc1 [Droperidol] |
| > 45.8 µM | > 45.8 µM | COc1ccc(CC(C)(C)NC[C@H](O)c2cc(O)cc3c2OCC(=O)N3)cc1 [Olodaterol] |
| > 45.8 µM | > 45.8 µM | CCOC(=O)c1ccc(N)cc1 [Benzocaine] |
| > 45.8 µM | > 45.8 µM | CC(C(=O)O)c1ccc(C(=O)c2ccccc2)s1 (stereo not given) [Tiaprofenic acid] |
| > 45.8 µM | > 45.8 µM | COc1cc(C)c(Cc2cnc(N)nc2N)cc1OC [Ormetoprim] |
| > 45.8 µM | > 45.8 µM | Cc1ccc(Cl)c(OCC(O)CNC(C)(C)C)c1 (stereo not given) [Bupranolol] |
| > 45.8 µM | > 45.8 µM | CN(C)CCc1c[nH]c2ccc(Cn3cncn3)cc12 [Rizatriptan Benzoate] |
| > 45.8 µM | > 45.8 µM | CC1Cc2ccccc2N1NC(=O)c1ccc(Cl)c(S(N)(=O)=O)c1 (stereo not given) [Indapamide] |
| > 45.8 µM | > 45.8 µM | O=C1/C(=C2\Nc3ccccc3C2=O)Nc2ccccc21 [Indigo] |
